# Reference: PubChem BioAssay AID1259407 (Chemical Carcinogenesis Research Information System (CCRIS), 2018)
# Activity calls are given as the source filed them. The rule behind the calls is not given here.
# Tested on: CCRIS mutagenicity, Ames/micronucleus/aberration tests
# Assay: CCRIS mutagenicity studies
# [1] = Test System: AMES SALMONELLA TYPHIMURIUM, Strain/Indicator: TA98, Metabolic Activation: HAMSTER, LIVER, S-9, AROCLOR 1254, Method: STANDARD PLATE
# [2] = Test System: AMES SALMONELLA TYPHIMURIUM, Strain/Indicator: TA98, Metabolic Activation: NONE, Method: STANDARD PLATE
# [3] = Test System: AMES SALMONELLA TYPHIMURIUM, Strain/Indicator: TA98, Metabolic Activation: RAT, LIVER, S-9, AROCLOR 1254, Method: STANDARD PLATE
# [4] = Test System: AMES SALMONELLA TYPHIMURIUM, Strain/Indicator: TA100, Metabolic Activation: HAMSTER, LIVER, S-9, AROCLOR 1254, Method: STANDARD PLATE
# [5] = Test System: AMES SALMONELLA TYPHIMURIUM, Strain/Indicator: TA100, Metabolic Activation: NONE, Method: STANDARD PLATE
# [6] = Test System: AMES SALMONELLA TYPHIMURIUM, Strain/Indicator: TA100, Metabolic Activation: RAT, LIVER, S-9, AROCLOR 1254, Method: STANDARD PLATE
# [7] = Test System: AMES SALMONELLA TYPHIMURIUM, Strain/Indicator: TA1535, Metabolic Activation: HAMSTER, LIVER, S-9, AROCLOR 1254, Method: STANDARD PLATE
# [8] = Test System: AMES SALMONELLA TYPHIMURIUM, Strain/Indicator: TA1535, Metabolic Activation: NONE, Method: STANDARD PLATE
# [9] = Test System: AMES SALMONELLA TYPHIMURIUM, Strain/Indicator: TA1535, Metabolic Activation: RAT, LIVER, S-9, AROCLOR 1254, Method: STANDARD PLATE
# [10] = Test System: AMES SALMONELLA TYPHIMURIUM, Strain/Indicator: TA1537, Metabolic Activation: HAMSTER, LIVER, S-9, AROCLOR 1254, Method: STANDARD PLATE
# [11] = Test System: AMES SALMONELLA TYPHIMURIUM, Strain/Indicator: TA1537, Metabolic Activation: NONE, Method: STANDARD PLATE
# [12] = Test System: AMES SALMONELLA TYPHIMURIUM, Strain/Indicator: TA1537, Metabolic Activation: RAT, LIVER, S-9, AROCLOR 1254, Method: STANDARD PLATE
# [13] = Test System: AMES SALMONELLA TYPHIMURIUM, Strain/Indicator: TA1538, Metabolic Activation: NONE, Method: STANDARD PLATE
# [14] = Test System: MOUSE LYMPHOMA, Strain/Indicator: L5178Y (TK+/TK-), Metabolic Activation: NONE, Method: SUSPENSION/PLATE
# [15] = Test System: MOUSE LYMPHOMA, Strain/Indicator: L5178Y (TK+/TK-), Metabolic Activation: RAT, LIVER, S-9, AROCLOR 1254, Method: SUSPENSION/PLATE
# [16] = Test System: AMES SALMONELLA TYPHIMURIUM, Strain/Indicator: TA98, Metabolic Activation: NONE, Method: PREINCUBATION
# [17] = Test System: AMES SALMONELLA TYPHIMURIUM, Strain/Indicator: TA100, Metabolic Activation: NONE, Method: PREINCUBATION
compound,measurement,setting,value
N#CCCNCCC#N,mutagenic call,[1],inactive; negative
same,mutagenic call,[2],inactive; negative
same,mutagenic call,[3],inactive; negative
same,mutagenic call,[4],inactive; negative
same,mutagenic call,[5],inactive; negative
same,mutagenic call,[6],inactive; negative
same,mutagenic call,[7],inactive; negative
same,mutagenic call,[8],inactive; negative
same,mutagenic call,[9],inactive; negative
same,mutagenic call,[10],inactive; negative
same,mutagenic call,[11],inactive; negative
same,mutagenic call,[12],inactive; negative
same,mutagenic call,"Test System: AMES SALMONELLA TYPHIMURIUM, Strain/Indicator: TA1538, Metabolic Activation: HAMSTER, LIVER, S-9, AROCLOR 1254, Method: STANDARD PLATE",inactive; negative
same,mutagenic call,[13],inactive; negative
same,mutagenic call,"Test System: AMES SALMONELLA TYPHIMURIUM, Strain/Indicator: TA1538, Metabolic Activation: RAT, LIVER, S-9, AROCLOR 1254, Method: STANDARD PLATE",inactive; negative
same,mutagenic call,[14],inactive; negative. reevaluation of results: negative
same,mutagenic call,[15],active; positive. reevaluation of results: equivocal
O=C(O)c1cc(Cl)ccc1O,mutagenic call,[13],inactive; negative
same,mutagenic call,"Test System: AMES SALMONELLA TYPHIMURIUM, Strain/Indicator: TA1538, Metabolic Activation: RAT,LIVER, S-9, AROCLOR 1254, Method: STANDARD PLATE",inactive; negative
COc1cc([C@@H]2c3cc4c(cc3[C@H](O)[C@H]3COC(=O)[C@H]23)OCO4)cc(OC)c1OC,mutagenic call,[1],inactive; negative
same,mutagenic call,[2],inactive; negative
same,mutagenic call,[3],inactive; negative
same,mutagenic call,[4],inactive; negative
same,mutagenic call,[5],inactive; negative
same,mutagenic call,[6],inactive; negative
same,mutagenic call,"Test System: AMES SALMONELLA TYPHIMURIUM, Strain/Indicator: TA102, Metabolic Activation: NONE, Method: STANDARD PLATE",inactive; negative
same,mutagenic call,"Test System: AMES SALMONELLA TYPHIMURIUM, Strain/Indicator: TA102, Metabolic Activation: RAT, LIVER, S-9, AROCLOR 1254, Method: STANDARD PLATE",inactive; negative
same,mutagenic call,[7],inactive; negative
same,mutagenic call,[8],inactive; negative
same,mutagenic call,[9],inactive; negative
same,mutagenic call,[10],inactive; negative
same,mutagenic call,[11],inactive; negative
same,mutagenic call,[12],inactive; negative
same,mutagenic call,[14],inactive; negative. reevaluation of results: negative
same,mutagenic call,[15],inactive; negative. reevaluation of results: negative
O=C1c2ccccc2C(=O)c2c1cc(O)c(C(=O)O)c2O,mutagenic call,[16],inactive; negative
same,mutagenic call,"Test System: AMES SALMONELLA TYPHIMURIUM, Strain/Indicator: TA98, Metabolic Activation: RAT, LIVER, S-9, PCB, Method: PREINCUBATION",inactive; negative
same,mutagenic call,[17],inactive; negative
same,mutagenic call,"Test System: AMES SALMONELLA TYPHIMURIUM, Strain/Indicator: TA100, Metabolic Activation: RAT, LIVER, S-9, PCB, Method: PREINCUBATION",inactive; negative
N[C@@H](CCC(=O)N[C@@H](CSc1ccc([N+](=O)[O-])cc1[N+](=O)[O-])C(=O)NCC(=O)O)C(=O)O,mutagenic call,"Test System: AMES SALMONELLA TYPHIMURIUM, Strain/Indicator: TA100(NR), Metabolic Activation: NONE, Method: PREINCUBATION",inactive; negative
same,mutagenic call,"Test System: AMES SALMONELLA TYPHIMURIUM, Strain/Indicator: TA100/GSH-, Metabolic Activation: NONE, Method: PREINCUBATION",active; positive
same,mutagenic call,[17],inactive; negative
O[C@H]1[C@@H]2O[C@@H]2c2c(ccc3cc4ccc5ccccc5c4nc23)[C@@H]1O,mutagenic call,[16],active; positive
same,mutagenic call,[17],active; positive
same,mutagenic call,"Test System: CHINESE HAMSTER V-79, Strain/Indicator: V-79/8-AZAGUANINE, Metabolic Activation: NONE, Method: STANDARD PLATE",active; positive
N#CCCC(Br)(C#N)CBr (stereo unspecified),mutagenic call,"End Point: In vivo micronucleus, Test System: Peripheral blood normochromatic erythrocytes, Species: Mouse, Strain/Sex: B6C3F1/Female, Route: Dermal",inactive; negative
same,mutagenic call,"End Point: In vivo micronucleus, Test System: Peripheral blood normochromatic erythrocytes, Species: Mouse, Strain/Sex: B6C3F1/Male, Route: Dermal",inactive; negative
same,mutagenic call,"Test System: Ames Salmonella typhimurium, Strain/Indicator: TA97, Metabolic Activation: Hamster, Liver, S-9, Aroclor 1254 (10 and 30%), Method: Preincubation",inactive; negative
same,mutagenic call,"Test System: Ames Salmonella typhimurium, Strain/Indicator: TA97, Metabolic Activation: None, Method: Preincubation",inactive; negative
same,mutagenic call,"Test System: Ames Salmonella typhimurium, Strain/Indicator: TA97, Metabolic Activation: Rat, Liver, S-9, Aroclor 1254 (10 and 30%), Method: Preincubation",inactive; negative
same,mutagenic call,"Test System: Ames Salmonella typhimurium, Strain/Indicator: TA98, Metabolic Activation: Hamster, Liver, S-9, Aroclor 1254 (10 and 30%), Method: Preincubation",inactive; negative
same,mutagenic call,"Test System: Ames Salmonella typhimurium, Strain/Indicator: TA98, Metabolic Activation: None, Method: Preincubation",inactive; negative
same,mutagenic call,"Test System: Ames Salmonella typhimurium, Strain/Indicator: TA98, Metabolic Activation: Rat, Liver, S-9, Aroclor 1254 (10 and 30%), Method: Preincubation",inactive; negative
same,mutagenic call,"Test System: Ames Salmonella typhimurium, Strain/Indicator: TA100, Metabolic Activation: Hamster, Liver, S-9, Aroclor 1254 (10 and 30%), Method: Preincubation",inactive; negative
same,mutagenic call,"Test System: Ames Salmonella typhimurium, Strain/Indicator: TA100, Metabolic Activation: None, Method: Preincubation",inactive; negative
same,mutagenic call,"Test System: Ames Salmonella typhimurium, Strain/Indicator: TA100, Metabolic Activation: Rat, Liver, S-9, Aroclor 1254 (10 and 30%), Method: Preincubation",inactive; negative
same,mutagenic call,"Test System: Ames Salmonella typhimurium, Strain/Indicator: TA1535, Metabolic Activation: Hamster, Liver, S-9, Aroclor 1254 (10 and 30%), Method: Preincubation",inactive; negative
same,mutagenic call,"Test System: Ames Salmonella typhimurium, Strain/Indicator: TA1535, Metabolic Activation: None, Method: Preincubation",inactive; negative
same,mutagenic call,"Test System: Ames Salmonella typhimurium, Strain/Indicator: TA1535, Metabolic Activation: Rat, Liver, S-9, Aroclor 1254 (10 and 30%), Method: Preincubation",inactive; negative
same,mutagenic call,"Test System: E. coli, Strain/Indicator: WP2 uvrA/pKM101, Metabolic Activation: None, Method: Preincubation",inactive; negative
same,mutagenic call,"Test System: E. coli, Strain/Indicator: WP2 uvrA/pKM101, Metabolic Activation: Rat, Liver, S-9, Aroclor 1254 (10%), Method: Preincubation",inactive; negative
